The values that follow come from patent US20210070748A1, “INHIBITORS OF BRUTONS TYROSINE KINASE” (Pharmacyclics LLC, priority 2015, published 2021).

Each structure is given as a SMILES string. pIC50: −log10 of the molar value.

Holding throughout (format): biochemical
In one assay the target is T1, ITK (Homo sapiens, UniProt Q08881).
T1 sequence (Q08881 1-620): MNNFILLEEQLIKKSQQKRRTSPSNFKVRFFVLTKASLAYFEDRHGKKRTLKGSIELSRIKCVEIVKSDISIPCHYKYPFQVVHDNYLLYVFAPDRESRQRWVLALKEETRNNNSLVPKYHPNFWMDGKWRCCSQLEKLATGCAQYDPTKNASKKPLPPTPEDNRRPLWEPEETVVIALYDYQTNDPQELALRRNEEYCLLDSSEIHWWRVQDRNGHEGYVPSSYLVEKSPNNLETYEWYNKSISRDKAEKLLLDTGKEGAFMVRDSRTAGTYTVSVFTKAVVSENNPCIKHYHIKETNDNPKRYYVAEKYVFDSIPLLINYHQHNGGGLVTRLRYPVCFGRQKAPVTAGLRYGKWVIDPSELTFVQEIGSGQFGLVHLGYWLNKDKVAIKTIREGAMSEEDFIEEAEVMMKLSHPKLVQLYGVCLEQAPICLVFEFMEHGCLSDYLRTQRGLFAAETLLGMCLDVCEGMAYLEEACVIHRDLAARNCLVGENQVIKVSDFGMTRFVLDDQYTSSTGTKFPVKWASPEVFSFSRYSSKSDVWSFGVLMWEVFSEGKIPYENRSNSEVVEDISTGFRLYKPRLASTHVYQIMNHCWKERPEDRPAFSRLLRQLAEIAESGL
The experiment in a line: Inhibition of a panel of kinases, in vitro HotSpot kinase assay: ITK. To be noted: D-compounds panel data; 1 μM ATP. How it is done:
(§1) The degree of inhibition of a panel of kinases is determined using the in vitro HotSpot kinase assay (purified enzymes, ^33P-ATP, an appropriate substrate and 1 μM ATP).

Another assay deals with SRC (Homo sapiens, UniProt P12931). The experiment in a line: Inhibition of a panel of kinases, in vitro HotSpot kinase assay: SRC. The following applies: D-compounds panel data; 1 μM ATP. The procedure: as §1
A further assay has as its target EGFR (Homo sapiens, UniProt P00533). The experiment in a line: Inhibition of a panel of kinases, in vitro HotSpot kinase assay: EGFR. To be noted: D-compounds panel data; 1 μM ATP. How it is done: as §1
Another assay concerns the target T2, JAK3 (Homo sapiens, UniProt P52333).
T2 sequence (P52333 1-1124): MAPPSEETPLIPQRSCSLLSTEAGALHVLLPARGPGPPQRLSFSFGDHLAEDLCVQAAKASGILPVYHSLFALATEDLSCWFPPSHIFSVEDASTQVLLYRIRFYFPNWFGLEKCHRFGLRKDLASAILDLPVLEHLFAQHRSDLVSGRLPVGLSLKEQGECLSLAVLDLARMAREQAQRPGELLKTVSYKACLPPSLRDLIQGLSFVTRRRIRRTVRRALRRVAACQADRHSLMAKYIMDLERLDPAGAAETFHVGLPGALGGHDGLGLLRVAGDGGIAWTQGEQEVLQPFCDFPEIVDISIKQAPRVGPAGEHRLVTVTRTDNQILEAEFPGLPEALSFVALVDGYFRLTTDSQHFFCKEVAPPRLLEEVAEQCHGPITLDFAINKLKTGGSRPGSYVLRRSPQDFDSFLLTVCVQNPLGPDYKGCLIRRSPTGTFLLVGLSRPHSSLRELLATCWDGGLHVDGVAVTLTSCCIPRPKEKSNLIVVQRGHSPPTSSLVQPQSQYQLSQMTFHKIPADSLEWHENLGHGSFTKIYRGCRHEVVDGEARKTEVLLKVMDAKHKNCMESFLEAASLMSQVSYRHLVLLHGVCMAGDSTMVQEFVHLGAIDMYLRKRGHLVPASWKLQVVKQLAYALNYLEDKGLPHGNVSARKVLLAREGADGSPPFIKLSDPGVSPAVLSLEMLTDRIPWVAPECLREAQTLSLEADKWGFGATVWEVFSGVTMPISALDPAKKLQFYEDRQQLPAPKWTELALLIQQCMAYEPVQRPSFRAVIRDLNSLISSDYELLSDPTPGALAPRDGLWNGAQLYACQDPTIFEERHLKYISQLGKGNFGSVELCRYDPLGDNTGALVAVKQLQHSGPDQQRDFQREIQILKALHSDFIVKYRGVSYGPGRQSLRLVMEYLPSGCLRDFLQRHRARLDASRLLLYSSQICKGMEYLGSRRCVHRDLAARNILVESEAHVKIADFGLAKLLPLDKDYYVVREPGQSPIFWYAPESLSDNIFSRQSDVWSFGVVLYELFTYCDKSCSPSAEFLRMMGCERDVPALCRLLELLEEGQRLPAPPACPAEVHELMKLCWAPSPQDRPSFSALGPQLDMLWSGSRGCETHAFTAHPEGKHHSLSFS
Nature of the assay: Inhibition of a panel of kinases, in vitro HotSpot kinase assay: JAK3. The following applies: D-compounds panel data; 1 μM ATP; read-out: IC50 JAK3.

A further assay addresses LCK (Homo sapiens, UniProt P06239). The experiment in a line: Inhibition of a panel of kinases, in vitro HotSpot kinase assay: LCK. The following applies: D-compounds panel data; 1 μM ATP; read-out: IC50 LCK.

Chain of SRC (P12931 whole entry): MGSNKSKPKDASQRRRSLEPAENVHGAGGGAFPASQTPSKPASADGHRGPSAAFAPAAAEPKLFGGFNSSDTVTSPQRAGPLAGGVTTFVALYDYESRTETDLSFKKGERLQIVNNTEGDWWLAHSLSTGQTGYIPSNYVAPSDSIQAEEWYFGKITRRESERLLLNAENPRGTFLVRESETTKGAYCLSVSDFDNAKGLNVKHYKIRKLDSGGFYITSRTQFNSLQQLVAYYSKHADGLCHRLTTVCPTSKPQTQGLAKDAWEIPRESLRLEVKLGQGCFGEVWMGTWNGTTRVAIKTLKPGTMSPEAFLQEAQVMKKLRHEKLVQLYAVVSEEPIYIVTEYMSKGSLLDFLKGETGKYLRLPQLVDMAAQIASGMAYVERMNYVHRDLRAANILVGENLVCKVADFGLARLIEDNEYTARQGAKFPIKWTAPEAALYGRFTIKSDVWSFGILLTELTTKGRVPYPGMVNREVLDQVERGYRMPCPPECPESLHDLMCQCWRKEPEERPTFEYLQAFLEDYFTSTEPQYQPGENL
Chain of LCK (P06239 whole entry): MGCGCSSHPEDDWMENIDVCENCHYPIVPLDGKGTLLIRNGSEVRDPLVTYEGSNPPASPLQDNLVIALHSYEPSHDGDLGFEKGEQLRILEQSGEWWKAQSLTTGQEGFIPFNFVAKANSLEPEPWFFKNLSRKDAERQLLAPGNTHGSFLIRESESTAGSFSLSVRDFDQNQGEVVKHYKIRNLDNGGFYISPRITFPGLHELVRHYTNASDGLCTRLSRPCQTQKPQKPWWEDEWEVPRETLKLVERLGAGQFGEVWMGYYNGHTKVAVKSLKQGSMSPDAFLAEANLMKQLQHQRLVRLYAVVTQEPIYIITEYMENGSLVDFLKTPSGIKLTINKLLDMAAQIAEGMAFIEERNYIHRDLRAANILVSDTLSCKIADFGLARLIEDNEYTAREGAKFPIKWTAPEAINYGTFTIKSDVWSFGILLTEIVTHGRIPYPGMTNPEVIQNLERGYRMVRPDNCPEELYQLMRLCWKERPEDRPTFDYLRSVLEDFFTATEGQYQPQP
Chain of EGFR (P00533 25-1210): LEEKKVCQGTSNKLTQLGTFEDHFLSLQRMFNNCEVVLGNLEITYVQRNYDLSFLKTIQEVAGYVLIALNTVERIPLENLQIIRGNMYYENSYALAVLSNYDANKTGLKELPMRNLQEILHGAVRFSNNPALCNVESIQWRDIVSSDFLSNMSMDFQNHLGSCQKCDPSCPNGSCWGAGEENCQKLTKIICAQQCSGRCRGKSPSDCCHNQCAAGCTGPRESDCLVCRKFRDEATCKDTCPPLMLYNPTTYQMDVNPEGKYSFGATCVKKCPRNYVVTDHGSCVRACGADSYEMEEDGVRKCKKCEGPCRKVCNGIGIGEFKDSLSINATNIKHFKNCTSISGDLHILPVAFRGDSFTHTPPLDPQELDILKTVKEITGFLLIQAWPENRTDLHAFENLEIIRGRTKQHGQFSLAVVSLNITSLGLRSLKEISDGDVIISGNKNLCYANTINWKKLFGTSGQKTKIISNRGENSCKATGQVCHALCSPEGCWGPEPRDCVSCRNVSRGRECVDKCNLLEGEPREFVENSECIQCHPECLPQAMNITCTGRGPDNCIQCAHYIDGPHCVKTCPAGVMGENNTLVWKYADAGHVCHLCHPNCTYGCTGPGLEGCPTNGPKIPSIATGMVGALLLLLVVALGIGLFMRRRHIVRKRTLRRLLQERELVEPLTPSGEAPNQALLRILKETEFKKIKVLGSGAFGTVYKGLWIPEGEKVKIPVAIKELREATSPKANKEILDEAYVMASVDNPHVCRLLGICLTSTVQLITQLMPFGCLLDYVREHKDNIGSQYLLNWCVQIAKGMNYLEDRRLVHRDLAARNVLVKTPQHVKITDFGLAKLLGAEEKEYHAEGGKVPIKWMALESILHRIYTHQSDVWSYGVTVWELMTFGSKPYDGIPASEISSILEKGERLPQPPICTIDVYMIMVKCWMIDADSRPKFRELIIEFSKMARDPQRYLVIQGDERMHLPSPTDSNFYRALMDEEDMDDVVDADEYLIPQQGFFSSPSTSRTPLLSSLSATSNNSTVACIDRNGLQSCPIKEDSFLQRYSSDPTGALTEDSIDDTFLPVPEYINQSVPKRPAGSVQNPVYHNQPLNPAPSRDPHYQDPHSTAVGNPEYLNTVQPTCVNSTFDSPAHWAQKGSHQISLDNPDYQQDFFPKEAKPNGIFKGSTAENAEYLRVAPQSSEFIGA

Turning to `COCCN(C)c1ccc(C(=O)N[C@@H]2CCCN(c3cnc(C(N)=O)c(Nc4cnn(C)c4)n3)[C@@H]2C)cc1` [Example D-248, 5-[(2R,3R)-3-{4-[(2-methoxyethyl)(methyl)amino]benzamido}-2-methylpiperidin-1-yl]-3-[(1-methyl-1H-pyrazol-4-yl)amino]pyrazine-2-carboxamide], the pIC50 on ITK is 6.00 to 7.00; against SRC, 7.00 to 8.00; against EGFR it was 6.00 to 7.00; at JAK3, 6.00 to 7.00; at LCK, 7.00 to 8.00.
Consider `C[C@@H]1[C@H](NC(=O)c2ccc(C3CC3)cc2)CCCN1c1cnc(C(N)=O)c(Nc2cc(C3CCOCC3)ns2)n1` [Example D-310, 5-[(2R,3R)-3-(4-cyclopropylbenzamido)-2-methylpiperidin-1-yl]-3-{[3-(oxan-4-yl)-1,2-thiazol-5-yl]amino}pyrazine-2-carboxamide], for which the negative-log IC50 (pIC50) against ITK is 7.00 to 8.00; on SRC, 7.00 to 8.00; against EGFR it was 5.00 to 6.00; at JAK3 it was 6.00 to 7.00; on LCK, 7.00 to 8.00.
`CC(=O)N1CCC(c2ccc(Nc3nc(N4CCC[C@@H](NC(=O)c5ccc(C6CC6)cc5)[C@H]4C)cnc3C(N)=O)cc2)CC1` [Example D-296, 3-{[4-(1-acetylpiperidin-4-yl)phenyl]amino}-5-[(2R,3R)-3-(4-cyclopropylbenzamido)-2-methylpiperidin-1-yl]pyrazine-2-carboxamide]: the negative-log IC50 (pIC50) at ITK was 6.00 to 7.00; on SRC, 7.00 to 8.00; against EGFR it was 6.00 to 7.00; at JAK3, 5.00 to 6.00; at LCK it was 6.00 to 7.00.
Turning to `C[C@@H]1[C@H](NC(=O)c2ccc(C(C)(O)CO)cc2)CCCN1c1cnc(C(N)=O)c(Nc2cnn(C)c2)n1` (single isomer, unassigned) [Example D-256], the pIC50 against ITK was 6.00 to 7.00; against SRC, 7.00 to 8.00; against EGFR, 6.00 to 7.00; on JAK3, 6.00 to 7.00; on LCK, 7.00 to 8.00.
For `C[C@@H]1[C@H](NC(=O)c2ccc(C3CC3)cc2)CCCN1c1cnc(C(N)=O)c(Nc2ccc3c(c2)OC(F)(F)O3)n1` [Example D-315, 5-[(2R,3R)-3-(4-cyclopropylbenzamido)-2-methylpiperidin-1-yl]-3-[(2,2-difluoro-2H-1,3-benzodioxol-5-yl)amino]pyrazine-2-carboxamide], the pIC50 against ITK, against SRC, against EGFR, at JAK3 and at LCK was under 5.00 each time.
With `C[C@@H]1[C@H](NC(=O)c2ccc(C3CC3)cc2)CCCN1c1cnc(C(N)=O)c(Nc2cn[nH]c2)n1` [Example D-282, 5-[(2R,3R)-3-(4-cyclopropylbenzamido)-2-methylpiperidin-1-yl]-3-[(1H-pyrazol-4-yl)amino]pyrazine-2-carboxamide], the pIC50 on ITK is 6.00 to 7.00; against SRC, 6.00 to 7.00; on EGFR, 5.00 to 6.00; at JAK3, under 5.00; at LCK, 6.00 to 7.00.
On to `COCCn1cc(Nc2nc(N3CCC[C@@H](NC(=O)c4ccc(C5CC5)cc4)[C@H]3C)cnc2C(N)=O)cn1` [Example D-270, 5-[(2R,3R)-3-(4-cyclopropylbenzamido)-2-methylpiperidin-1-yl]-3-{[1-(2-methoxyethyl)-1H-pyrazol-4-yl]amino}pyrazine-2-carboxamide], for which the pIC50 is 6.00 to 7.00 at ITK; 6.00 to 7.00 on SRC; 5.00 to 6.00 on EGFR; 5.00 to 6.00 on JAK3; 6.00 to 7.00 at LCK.
As to `C[C@@H]1[C@H](NC(=O)c2ccc3nn(C)cc3c2)CCCN1c1cnc(C(N)=O)c(Nc2cnn(C)c2)n1` [Example D-267, N-[(2R,3R)-1-{5-carbamoyl-6-[(1-methyl-1H-pyrazol-4-yl)amino]pyrazin-2-yl}-2-methylpiperidin-3-yl]-2-methyl-2H-indazole-5-carboxamide], the pIC50 was 6.00 to 7.00 on ITK; 7.00 to 8.00 at SRC; 6.00 to 7.00 against EGFR; 5.00 to 6.00 on JAK3; 7.00 to 8.00 at LCK.
Regarding `C[C@@H]1[C@H](NC(=O)c2ccc(C3CC3)cc2)CCCN1c1cnc(C(N)=O)c(Nc2cc(C3CCN(C4CCCC4)CC3)ns2)n1` [Example D-311, 3-{[3-(1-cyclopentylpiperidin-4-yl)-1,2-thiazol-5-yl]amino}-5-[(2R,3R)-3-(4-cyclopropylbenzamido)-2-methylpiperidin-1-yl]pyrazine-2-carboxamide], the pIC50 against ITK is 7.00 to 8.00; against SRC, 7.00 to 8.00; against EGFR, 5.00 to 6.00; on JAK3, 6.00 to 7.00; on LCK, 7.00 to 8.00.
With `C[C@@H]1[C@H](NC(=O)c2ccc(C3CC3)cc2)CCCN1c1cnc(C(N)=O)c(NCC2=CCN(C)CC2)n1` [Example D-300, 5-[(2R,3R)-3-(4-cyclopropylbenzamido)-2-methylpiperidin-1-yl]-3-{[(1-methyl-1,2,3,6-tetrahydropyridin-4-yl)methyl]amino}pyrazine-2-carboxamide], the pIC50 at ITK, against SRC, against EGFR, at JAK3 and at LCK was under 5.00 throughout.
With `C[C@@H]1[C@H](NC(=O)c2ccc(C3CC3)cc2)CCCN1c1cnc(C(N)=O)c(Nc2cnn(C3CCNCC3)c2)n1` [Example D-280, 5-[(2R,3R)-3-(4-cyclopropylbenzamido)-2-methylpiperidin-1-yl]-3-{[1-(piperidin-4-yl)-1H-pyrazol-4-yl]amino}pyrazine-2-carboxamide], the pIC50 was 7.00 to 8.00 against ITK; at least 8.00 on SRC; 5.00 to 6.00 against EGFR; 5.00 to 6.00 at JAK3; over 8.00 on LCK.
On to `C[C@@H]1[C@H](NC(=O)c2ccc(C3CC3)c(O)c2)CCCN1c1cnc(C(N)=O)c(Nc2cnn(C)c2)n1` [Example D-245, 5-[(2R,3R)-3-(4-cyclopropyl-3-hydroxybenzamido)-2-methylpiperidin-1-yl]-3-[(1-methyl-1H-pyrazol-4-yl)amino]pyrazine-2-carboxamide], for which the pIC50 against ITK was 6.00 to 7.00; on SRC it was 7.00 to 8.00; against EGFR it was 5.00 to 6.00; on JAK3, 6.00 to 7.00; at LCK, 6.00 to 7.00.
On to `C[C@@H]1[C@H](NC(=O)c2ccc(C3CC3)nc2)CCCN1c1cnc(C(N)=O)c(Nc2ccc(OC3CCOCC3)cc2)n1` [Example D-309, 5-[(2R,3R)-3-(6-cyclopropylpyridine-3-amido)-2-methylpiperidin-1-yl]-3-{[4-(oxan-4-yloxy)phenyl]amino}pyrazine-2-carboxamide], for which the pIC50 against ITK was 6.00 to 7.00; at SRC, 7.00 to 8.00; on EGFR it was 6.00 to 7.00; at JAK3, 6.00 to 7.00; on LCK, 6.00 to 7.00.

As a reminder, the pIC50 is the IC50 on a negative log10 scale, so that one unit is a factor of ten.
